These results are taken from publication PMC9059125 (Journal of Medicinal Chemistry, 2022).

Structures are written as SMILES. Read-outs that look alike come from different tables or passages of the source.

For data set [1] the following is noted: simulated gi fluid, pH 6.8.
Data set [2] has as its target T1, human oxytocin receptor (OTR) (Homo sapiens, UniProt P30559).
T1 construct: NIMH PDSP (data provider)
T1 sequence (P30559 1-389): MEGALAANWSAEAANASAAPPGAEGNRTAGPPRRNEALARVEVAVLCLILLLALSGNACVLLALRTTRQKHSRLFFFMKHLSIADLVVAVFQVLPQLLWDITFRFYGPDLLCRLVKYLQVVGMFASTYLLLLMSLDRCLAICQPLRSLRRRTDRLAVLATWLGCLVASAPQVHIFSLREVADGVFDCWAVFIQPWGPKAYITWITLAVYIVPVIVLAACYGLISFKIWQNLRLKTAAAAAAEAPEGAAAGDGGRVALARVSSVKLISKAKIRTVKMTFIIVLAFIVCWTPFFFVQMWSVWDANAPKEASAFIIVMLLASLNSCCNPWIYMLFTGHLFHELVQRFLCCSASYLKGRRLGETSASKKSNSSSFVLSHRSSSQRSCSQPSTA
The note with it: cited from earlier work.

The conditions of data set [3]: simulated gi fluid, pH 1.2.
In data set [4] the test system is OTR. The note with it: cited from earlier work.
Data set [5] in a line: in vitro. The note with it: pig, simulated gi fluid, pH 1.2, t1/2 SGF.
The nature of data set [6]: in vitro. The note with it: pig, simulated gi fluid, pH 6.8.
The target of data set [7] is T1, human oxytocin receptor (OTR). The note with it: cited from earlier work. This is another data set of the same source.

On to `CC[C@H](C)[C@@H]1NC(=O)[C@H](Cc2ccc(O)cc2)NC(=O)[C@@H](N)CSSC[C@@H](C(=O)N2CCC[C@H]2C(=O)N[C@@H](CC(C)C)C(=O)N(C)CC(N)=O)NC(=O)[C@H](CC(N)=O)NC(=O)[C@H](CCC(N)=O)NC1=O` [(Nα-Me)G^9OT], for which the “t1/2 SIF” value in data set [1] (pig) is listed as 2.9 ± 0.1 h. Moreover, the “reduced potency compared to native OT” value in data set [2] is on record as around 10 fold.
Consider `CC[C@H](C)[C@@H]1NC(=O)[C@@H]2CCCN2C(=O)[C@H](Cc2c[nH]c3ccccc23)NC(=O)[C@H](CO)NC(=O)[C@@H]2CSSC[C@@H]3NC(=O)[C@H]([C@@H](C)O)NC(=O)[C@H](CCC(=O)O)NC(=O)CNC(=O)[C@@H]4CSSC[C@H](NC(=O)CNC(=O)[C@H](CCC(N)=O)NC(=O)[C@H]([C@@H](C)O)NC(=O)[C@H](Cc5ccc(O)cc5)NC(=O)[C@H](CSSC[C@H](NC1=O)C(=O)N[C@@H](CCCCN)C(=O)N[C@@H](CCCNC(=N)N)C(=O)N[C@@H](CC(N)=O)C(=O)NCC(=O)N[C@@H](CC(C)C)C(=O)N1CCC[C@H]1C(=O)N[C@@H](C(C)C)C(=O)N4)NC(=O)[C@H]([C@@H](C)O)NC(=O)CNC(=O)[C@H](CC(C)C)NC(=O)[C@H]([C@@H](C)O)NC3=O)C(=O)N[C@@H]([C@@H](C)O)C(=O)N2` [Kalata B7], for which the “t1/2 SGF” value in data set [3] is reported as above 24 h. Further, the “t1/2 SIF” value in data set [1] is listed as above 24 h. In data set [4], the “agonistic activity at the OTR (in words)” value is reported as “weak inherent agonistic activity”.
Broadly, the half-life is the time needed for the level to fall by half in the phase considered. A lower half-life goes with fast loss. Regarding `CC[C@H](C)[C@@H]1NC(=O)[C@@H]2CCCN2C(=O)[C@@H]2CCCN2C(=O)[C@H]([C@@H](C)CC)NC(=O)[C@H](CO)NC(=O)[C@H](CCCCN)NC(=O)[C@H]([C@@H](C)O)NC(=O)[C@@H]2CSSC[C@H](NC1=O)C(=O)N[C@@H](Cc1ccccc1)C(=O)N1CCC[C@H]1C(=O)N[C@@H](CC(=O)O)C(=O)NCC(=O)N[C@@H](CCCNC(=N)N)C(=O)N2` [SFTI-1], the half-life is above 24 h in data set [5] and 16.3 ± 2.7 h in data set [6].
`CC[C@@H](C)[C@H]1NC(=O)[C@@H](CCC(N)=O)NC(=O)[C@@H](CC(N)=O)NC(=O)[C@H](NC(=O)[C@H]2CCCN2C(=O)[C@@H](CC(C)C)NC(=O)CN)CSSC[C@H](C(N)=O)NC(=O)[C@@H](Cc2ccc(O)cc2)NC1=O` [all-D-retroinverse-OT]: in data set [7], the “activity at the OTR (in words)” value was “inactive”. In data set [6], this compound returned a half-life above 24 h.
